According to patent US20060276455A1, “Use of a mast cell activation or degranulation blocking agent in the manufacture of a medicament for the treatment of cerebral ischemia” (priority 2003, published 2006):

What was measured:
[1] = system: focal cerebral ischemia in rats (middle cerebral artery occlusion); assay: Postischemic neutrophil response (Leder staining) after transient MCA occlusion; format: in vivo, rat; conditions: i.c.v. pretreatment, 4 h after MCAO, vs control
From the text: We used the suture MCA occlusion model with reperfusion, described elsewhere. Briefly, we exposed the right common carotid artery (CCA) and the right external carotid artery (ECA) through a ventral midline neck incision. We ligated the proximal CCA and the origin of the ECA. We inserted a 4-0 nylon mono-filament suture (Ethilon Nylon Suture, ETHICON) with its tip rounded by heating near a flame and then coated with silicone into the right CCA via an arteriectomy. Reperfusion was accomplished by withdrawing the suture occluder 60 minutes after MCAO, whereafter the animals were allowed to recover. Four hours after MCAO, the rats were killed by injecting intraperitoneally 120 mg of pentobarbital natrium (Mebumat). Cardiac perfusion was performed with the heart still beating but respiration ceased by infusing 250 mL of ice cold 0.9% saline at an inflow pressure of 100 mmHg into the arterial vascular system. […] The densities of intravascular and emigrated neutrophils were counted without prior knowledge of animal grouping in systematically placed target areas, the temporoparietal infarction core, the parasagittal infarct penumbra and the deep thalamic and basal ganglia. In each area, 60 to 100 microscopic fields of 0.1 mm^2 were counted and averaged for each location. […]

[2] = system: cerebral hemorrhage in rats; assay: Surgically induced cerebral hemorrhage (autologous blood injection), outcome at 24 h; conditions: i.c.v.
Method: In anesthesized rats, 2 craniotomies were performed for the introduction of drug infusion and blood. We injected 50 microliters of autologous arterial blood via stereotactically a Hamilton needle tip placed to the caudate putamen (6 mm from skull surface), a common location of spontaneous cerebral hemorrhages.
Animals were allowed to recover and 24 h later their level of neurological deterioration was rated on a 6-point scale: 5=dead, 4=stuporous, moribund, 3=hemiparetic with balance disturbance, 2=hemiparesis, 1=paresis of contralateral paw, 0=normal. The mortality was also recorded by 24 hours.

O=C(O)c1cc(=O)c2c(OCC(O)COc3cccc4oc(C(=O)O)cc(=O)c34)cccc2o1 [disodium cromoglycate]
decrease of density of neutrophils in the infarcted hemisphere [1]: 37%
six-point neurological score (0=normal, 5=dead), average ([2]; 24 h, saline-treated 3.2, p<0.01): 0.89
mortality by 24 hours ([2]; saline-treated group 40%): 0%
